Assays:
Type in all cases: in vivo
Heliothis virescens = Heliothis virescens (tobacco budworm) egg/artificial diet test; details: 96 h, 200 ppm (concentration in well 18 ppm), eggs 0-24 h old on artificial diet, 4 days, egg mortality, larval mortality, growth regulation
Experimental: Eggs (0-24 h old) were placed in 24-well microtiter plate on artificial diet and treated with test solutions at an application rate of 200 ppm (concentration in well 18 ppm) by pipetting. After an incubation period of 4 days, samples were checked for egg mortality, larval mortality, and growth regulation.

Tetranychus urticae = Tetranychus urticae (two-spotted spider mite) leaf disc spray test; details: foliar, 192 h, 200 ppm spray on bean leaf discs, mixed ages, 8 days, egg, larval and adult mortality
From the text: Bean leaf discs on agar in 24-well microtiter plates were sprayed with test solutions at an application rate of 200 ppm. After drying, the leaf discs are infested with mite populations of mixed ages. 8 days later, discs are checked for egg mortality, larval mortality, and adult mortality.

Thrips tabaci = Thrips tabaci (onion thrips) leaf disc spray test; details: foliar, 168 h, 200 ppm spray on sunflower leaf discs, mixed ages, 7 days, mortality
Experimental: [The procedure below names another target; the source lists this target under the same test.] Sunflower leaf discs were placed on agar in a 24-well microtiter plate and sprayed with test solutions at an application rate of 200 ppm. After drying, the leaf discs were infested with an […] population of mixed ages. After an incubation period of 7 days, samples were checked for mortality.

Plutella xylostella = Plutella xylostella (diamond back moth) artificial diet test; details: 144 h, 200 ppm (concentration in well 18 ppm), L2 larvae, 6 days, larval mortality, growth regulation
Experimental: 24-well microtiter plate (MTP) with artificial diet was treated with test solutions at an application rate of 200 ppm (concentration in well 18 ppm) by pipetting. After drying, the MTP's were infested with L2 larvae (7-12 per well). After an incubation period of 6 days, samples were checked for larval mortality and growth regulation.

Diabrotica balteata = Diabrotica balteata (corn root worm) artificial diet test; details: 120 h, 200 ppm (concentration in well 18 ppm), L2 larvae, 5 days, larval mortality, growth regulation
Experimental: A 24-well microtiter plate (MTP) with artificial diet was treated with test solutions at an application rate of 200 ppm (concentration in well 18 ppm) by pipetting. After drying, the MTP's were infested with L2 larvae (6-10 per well). After an incubation period of 5 days, samples were checked for larval mortality and growth regulation.

Spodoptera littoralis = Spodoptera littoralis (Egyptian cotton leafworm) leaf disc spray test; details: foliar, 72 h, 200 ppm spray on cotton leaf discs, L1 larvae, mortality, feeding behavior, growth regulation 3 days after treatment
From the text: Cotton leaf discs were placed on agar in a 24-well microtiter plate and sprayed with test solutions at an application rate of 200 ppm. After drying, the leaf discs were infested with 5 L1 larvae. The samples were checked for mortality, feeding behavior, and growth regulation 3 days after treatment (DAT).

Myzus persicae = Myzus persicae (green peach aphid), systemic test; details: 144 h, roots of infested pea seedlings in test solution, 6 days, mortality, special effects on the plant
From the text: Myzus persicae (Green peach aphid), systemic test: Roots of pea seedlings, infested with an aphid population of mixed ages, are placed directly in the test solutions at an application rate of 12.5 ppm. 6 days after introduction, samples are checked for mortality and special effects on the plant. The following compounds gave at least 80% control of Myzus persicae: A3, B2, B3, B5, B6, B7, B8, B11, B12, C1, C2, C3,C4, C5, C6, C7, D1, E1, E2, G1, G3, G5, G6, H1, H5, H6, H9, H10, H11, H12, H13, H14, H18, H19, H20, H24, H25, and H26.

Cc1cc(C2=NOC(c3cc(Cl)cc(Cl)c3)(C(F)(F)F)C2)ccc1C(=O)NCC1CCN(C)O1 (centres unmarked) [Compound F2, N-(2-methyl-isoxazolidin-5-ylmethyl)-4-[5-(3,5-dichloro-phenyl)-5-trifluoromethyl-4,5-dihydro-isoxazol-3-yl]-2-methyl-benzamide]
≥ 80%: pest or weed control at 200 ppm (Heliothis virescens) | pest or weed control at 200 ppm (Tetranychus urticae) | pest or weed control at 200 ppm (Thrips tabaci) | pest or weed control at 200 ppm (Plutella xylostella) | pest or weed control at 200 ppm (Diabrotica balteata) | pest or weed control at 200 ppm (Spodoptera littoralis)

Cc1cc(C2=NOC(c3cc(Cl)cc(Cl)c3)(C(F)(F)F)C2)ccc1C(=O)N[C@@H]1CON(C2CSC2)C1=O (stereo partly drawn) [Compound B10, 4-[5-(3,5-Dichloro-phenyl)-5-trifluoromethyl-4,5-dihydro-isoxazol-3-yl]-2-methyl-N-((R)-2-(thietan-3-yl)-3-oxo-isoxazolidin-4-yl)-benzamide]
≥ 80%: pest or weed control at 200 ppm (Heliothis virescens) | pest or weed control at 200 ppm (Tetranychus urticae) | pest or weed control at 200 ppm (Thrips tabaci) | pest or weed control at 200 ppm (Plutella xylostella) | pest or weed control at 200 ppm (Diabrotica balteata) | pest or weed control at 200 ppm (Spodoptera littoralis)

Cc1cc(C2=NOC(c3cc(Cl)cc(Cl)c3)(C(F)(F)F)C2)ccc1C(=O)NCC1CCN(Cc2ccccc2)O1 (centres unmarked) [Compound F1, N-(2-Benzyl-isoxazolidin-5-ylmethyl)-4-[5-(3,5-dichloro-phenyl)-5-trifluoromethyl-4,5-dihydro-isoxazol-3-yl]-2-methyl-benzamide]
≥ 80%: pest or weed control at 200 ppm (Heliothis virescens) | pest or weed control at 200 ppm (Tetranychus urticae) | pest or weed control at 200 ppm (Thrips tabaci) | pest or weed control at 200 ppm (Plutella xylostella) | pest or weed control at 200 ppm (Diabrotica balteata) | pest or weed control at 200 ppm (Spodoptera littoralis)

Cc1cc(C2=NOC(c3cc(Cl)cc(Cl)c3)(C(F)(F)F)C2)ccc1C(=O)N[C@@H]1CONC1=O (stereo partly drawn) [Compound B1, 4-[5-(3,5-Dichloro-phenyl)-5-trifluoromethyl-4,5-dihydro-isoxazol-3-yl]-2-methyl-N-((R)-3-oxo-isoxazolidin-4-yl)-benzamide]
≥ 80%: pest or weed control at 200 ppm (Heliothis virescens) | pest or weed control at 200 ppm (Tetranychus urticae) | pest or weed control at 200 ppm (Plutella xylostella) | pest or weed control at 200 ppm (Spodoptera littoralis)

CCN1OC(CNC(=O)c2ccc(C3=NOC(c4cc(Cl)cc(Cl)c4)(C(F)(F)F)C3)cc2C)CC1=O (centres unmarked) [Compound F3, 4-[5-(3,5-Dichloro-phenyl)-5-trifluoromethyl-4,5-dihydro-isoxazol-3-yl]-2-methyl-N-[3-oxo-2-ethyl-isoxazolidin-5-ylmethyl]-benzamide]
≥ 80%: pest or weed control at 200 ppm (Heliothis virescens) | pest or weed control at 200 ppm (Tetranychus urticae) | pest or weed control at 200 ppm (Thrips tabaci) | pest or weed control at 200 ppm (Plutella xylostella) | pest or weed control at 200 ppm (Diabrotica balteata) | pest or weed control at 200 ppm (Spodoptera littoralis)

Cc1cc(C2=NOC(c3cc(Cl)cc(Cl)c3)(C(F)(F)F)C2)ccc1C(=O)N[C@@H]1CON(Cc2ccccc2)C1=O (stereo partly drawn) [Compound B4, 4-[5-(3,5-Dichloro-phenyl)-5-trifluoromethyl-4,5-dihydro-isoxazol-3-yl]-2-methyl-N-((R)-2-benzyl-3-oxo-isoxazolidin-4-yl)-benzamide]
≥ 80%: pest or weed control at 200 ppm (Heliothis virescens) | pest or weed control at 200 ppm (Tetranychus urticae) | pest or weed control at 200 ppm (Thrips tabaci) | pest or weed control at 200 ppm (Plutella xylostella) | pest or weed control at 200 ppm (Diabrotica balteata) | pest or weed control at 200 ppm (Spodoptera littoralis)

Cc1cc(C2=NOC(c3cc(Cl)cc(Cl)c3)(C(F)(F)F)C2)ccc1C(=O)N[C@@H]1CON(CCO)C1=O (stereo partly drawn) [Compound B9, 4-[5-(3,5-Dichloro-phenyl)-5-trifluoromethyl-4,5-dihydro-isoxazol-3-yl]-2-methyl-N-((R)-2-(2-hydroxy-ethyl)-3-oxo-isoxazolidin-4-yl)-benzamide]
≥ 80%: pest or weed control at 200 ppm (Heliothis virescens) | pest or weed control at 200 ppm (Tetranychus urticae) | pest or weed control at 200 ppm (Thrips tabaci) | pest or weed control at 200 ppm (Plutella xylostella) | pest or weed control at 200 ppm (Diabrotica balteata) | pest or weed control at 200 ppm (Spodoptera littoralis)

Cc1cc(C2=NOC(c3cc(Cl)cc(Cl)c3)(C(F)(F)F)C2)ccc1C(=O)NCC1CC(=O)N(CC(F)(F)F)O1 (centres unmarked) [Compound F4, 4-[5-(3,5-Dichloro-phenyl)-5-trifluoromethyl-4,5-dihydro-isoxazol-3-yl]-2-methyl-N-[3-oxo-2-(1,1,1-trifluoroethyl)-isoxazolidin-5-ylmethyl]-benzamide]
≥ 80%: pest or weed control at 200 ppm (Heliothis virescens) | pest or weed control at 200 ppm (Tetranychus urticae) | pest or weed control at 200 ppm (Thrips tabaci) | pest or weed control at 200 ppm (Plutella xylostella) | pest or weed control at 200 ppm (Diabrotica balteata) | pest or weed control at 200 ppm (Spodoptera littoralis)

COc1ccc(N2CCC(CNC(=O)c3ccc(C4=NOC(c5cc(Cl)cc(Cl)c5)(C(F)(F)F)C4)cc3C)S2(=O)=O)cc1 (centres unmarked) [Compound F6, 4-[5-(3,5-Dichloro-phenyl)-5-trifluoromethyl-4,5-dihydro-isoxazol-3-yl]-N-[2-(4-methoxy-phenyl)-1,1-dioxo-1 lambda*6*-isothiazolidin-5-ylmethyl]-2-methyl-benzamide]
≥ 80%: pest or weed control at 200 ppm (Heliothis virescens) | pest or weed control at 200 ppm (Tetranychus urticae) | pest or weed control at 200 ppm (Plutella xylostella) | pest or weed control at 200 ppm (Diabrotica balteata) | pest or weed control at 200 ppm (Spodoptera littoralis)

Cc1cc(C2=NOC(c3cc(Cl)cc(Cl)c3)(C(F)(F)F)C2)ccc1C(=O)N[C@@H]1CON(C2CCC2)C1=O (stereo partly drawn) [Compound B11, 4-[5-(3,5-Dichloro-phenyl)-5-trifluoromethyl-4,5-dihydro-isoxazol-3-yl]-2-methyl-N-((R)-2-(cyclobutyl)-3-oxo-isoxazolidin-4-yl)-benzamide]
≥ 80%: pest or weed control at 12.5 ppm (Myzus persicae) | pest or weed control at 200 ppm (Tetranychus urticae) | pest or weed control at 200 ppm (Thrips tabaci) | pest or weed control at 200 ppm (Plutella xylostella) | pest or weed control at 200 ppm (Diabrotica balteata) | pest or weed control at 200 ppm (Spodoptera littoralis)

Cc1cc(C2=NOC(c3cc(Cl)cc(Cl)c3)(C(F)(F)F)C2)ccc1C(=O)NCC1CO[S+]([O-])O1 (centres unmarked) [Compound F5, 4-[5-(3,5-dichlorophenyl)-5-(trifluoromethyl)-4H-isoxazol-3-yl]-2-methyl-N-[(2-oxido-1,3,2-dioxathiolan-2-ium-4-yl)methyl]benzamide]
≥ 80%: pest or weed control at 200 ppm (Heliothis virescens) | pest or weed control at 200 ppm (Tetranychus urticae) | pest or weed control at 200 ppm (Thrips tabaci) | pest or weed control at 200 ppm (Plutella xylostella) | pest or weed control at 200 ppm (Diabrotica balteata) | pest or weed control at 200 ppm (Spodoptera littoralis)

Cc1cc(C2=NOC(c3cc(Cl)cc(Cl)c3)(C(F)(F)F)C2)ccc1C(=O)NC1CSSC1 (centres unmarked) [Compound A1, 4-[5-(3,5-Dichloro-phenyl)-5-trifluoromethyl-4,5-dihydro-isoxazol-3-yl]-N-[1,2]dithiolan-4-yl-2-methyl-benzamide]
≥ 80%: pest or weed control at 200 ppm (Heliothis virescens) | pest or weed control at 200 ppm (Thrips tabaci) | pest or weed control at 200 ppm (Plutella xylostella) | pest or weed control at 200 ppm (Diabrotica balteata) | pest or weed control at 200 ppm (Spodoptera littoralis)
